Patent publication US20250179092A1, “PYRIDO[1,2-A]PYRIMIDIN-4-ONE DERIVATIVES” (Hoffmann-La Roche Inc., priority 2022, published 2025)

These molecules were tested on mutant HTT protein (mHTT) (assay: Homogeneous Time Resolved Fluorescence (HTRF) assay for HTT lowering). Conditions: reduction of mHTT in Huntington patient human cells (GENEAe020-A cell line), 48 hours incubation, mean from three replicates.
Assay type: cell-based
Method: Homogeneous Time Resolved Fluorescence for HTT Lowering
The HTRF assay was adapted from Weiss et al. (Analytical Biochemistry Volume 395, Issue 1, 1 Dec. 2009, Pages 8-15 and Analytical Biochemistry Volume 410, 2011, Pages 304-306) to cells from GENEAe020-A cell line (https.//hpscreg.eu/cell-line/GENEAe020-A).
Compounds were tested for the effect of mutant HTT levels in Huntington patient human cells (GENEAe020-A cell line) using Homogeneous Time Resolved Fluorescence (HTRF) directed towards mutant HTT protein (mHTT). The GENEAe020-A cell line was derived by Genea Biocells from human blastocysts of HD donors. After assessing viability, cells were plated into 384 well collagen coated plates in growth media. Once cells adhered, media was removed and test compounds dissolved in DMSO were diluted with buffer solution and added to the adherent cells. Controls included experiments with no cells, DMSO with no compound, and Hsp90 inhibitor control. Cells were incubated with compounds and controls for 48 hours. Then, the cells were lysed and transferred to an assay plate containing HTRF labeled monoclonal antibodies developed by Paul Patterson (Ko et al., Brain Research Bulletin, Volume 56, Numbers 3 and 4, 2001, Pages 319-329) which recognize specific areas of the HTT protein. The terbium labeled “donor” antibody (2B7) binds to the N-terminus of the HTT protein and the Alexa488 labeled “acceptor” antibody (MW1) is specific for the polyglutamine region of the protein. Binding of the acceptor labeled antibody is more efficient for the extended polyglutamine repeats of mutant HTT protein which translates into a signal boost which enables the specific measurement of mutant HTT protein level. The HTRF donor and acceptor detection reagents were incubated with the cell lysate and the ratio between the signals of the two fluorophores is indicative of the relative quantities of mHTT.
`Cc1cn2nc(-c3cc(=O)n4cc(C5CCNC6(CC6)C5)ccc4n3)cc(C)c2n1` (racemic) [Example 1, rac-7-(4-azaspiro[2.5]octan-7-yl)-2-(2,8-dimethylimidazo[1,2-b]pyridazin-6-yl)pyrido[1,2-a]pyrimidin-4-one] gave an EC50 of 31 nM.
Work on `COc1cc(-c2cc(=O)n3cc(C4CCNC5(CC5)C4)ccc3n2)nn2cc(C)nc12` (racemic) [Example 2, rac-7-(4-azaspiro[2.5]octan-7-yl)-2-(8-methoxy-2-methyl-imidazo[1,2-b]pyridazin-6-yl)pyrido[1,2-a]pyrimidin-4-one] yielded an EC50 of 21 nM.
In the case of `Cc1cn2nc(-c3cc(=O)n4cc(C5CCNC6(CC6)C5)ccc4n3)cc(C(F)(F)F)c2n1` (racemic) [Example 3, rac-7-(4-azaspiro[2.5]octan-7-yl)-2-[2-methyl-8-(trifluoromethyl)imidazo[1,2-b]pyridazin-6-yl]pyrido[1,2-a]pyrimidin-4-one], the EC50 is reported as 40 nM.
Molecule `Cc1nc2c(C)cc(-c3cc(=O)n4cc(C5CCNC6(CC6)C5)ccc4n3)nc2o1` (racemic) [Example 4, rac-7-(4-azaspiro[2.5]octan-7-yl)-2-(2,7-dimethyloxazolo[5,4-b]pyridin-5-yl)pyrido[1,2-a]pyrimidin-4-one] has an EC50 of 49 nM.
`O=c1cc(-c2ccc3nc(Cl)cn3n2)nc2ccc(C3CCNC4(CC4)C3)cn12` (racemic) [Example 5, rac-7-(4-azaspiro[2.5]octan-7-yl)-2-(2-chloroimidazo[1,2-b]pyridazin-6-yl)pyrido[1,2-a]pyrimidin-4-one] showed an EC50 of 259 nM.
